Converted amounts (≈) assume the structure as drawn. Where two headings read alike, the source gives them in different places.
Assays:
[1] = target: SARS‐CoV‐2 RdRp complex (nsp12, nsp7, nsp8) (Severe acute respiratory syndrome coronavirus 2, UniProt P0DTD1); experiment: Fluorescence-based RdRp polymerase assay (SYBR Green I RNA extension); format: biochemical
[2] = Solubility in water (stated in words); format: physicochemical
in vitro = conditions: human
Experimental: (§1) Briefly, two‐fold fold serial dilutions of compounds were added in triplicate in a 384‐well plate with 15,000 Calu‐3 cells in DMEM medium with 2 % FBS, 100 U of penicillin/ml and 100 μg of streptomycin/ml (all Merck). After 1 h incubation SARS‐CoV‐2 was added at multiplicity of infection 0.01. Following three days incubation at 37 °C in 5 % CO2 the cell viability was determined by addition of XTT solution (Sigma‐Aldrich) for 4 h and the absorbance was measured using EnVision plate reader (Perkin Elmer). Drug concentrations required to reduce viral cytopathic effect by 50 % (EC50) were calculated using nonlinear regression from plots of percentage cell viability versus log10 drug concentration using GraphPad Prism v.9.0.0 (GraphPad Software). Cytotoxicity was evaluated by incubating the same two‐fold serial dilutions of each compound with Calu‐3 cells as above but without virus. Following three days of incubation at 37 °C in 5 % CO2, the cell viability was determined by the addition of XTT solution as above. The compound concentrations resulting in a 50 % reduction of absorbance (CC50) were calculated from plots of the percentage of absorbance versus log10 drug concentration as above.

SARS‐CoV‐2 [3] = conditions: Severe acute respiratory syndrome coronavirus 2, Calu-3, 72 h
Experimental: as §1

[4] = Kinetic solubility test in enzymatic assay medium; format: physicochemical; conditions: aqueous HEPES buffer with 5 % DMSO, pH 8, aqueous with cosolvent or surfactant or cyclodextrin, kinetic from dmso stock
Experimental: Kinetic solubility tests were performed in the medium used for the enzymatic assay–aqueous solution of HEPES buffer with 5 % DMSO. […] This poor aqueous solubility represents a big hurdle in the development of potential antivirals and the improvement of solubility will be considered in further structural optimization efforts of this class of compounds.

SARS‐CoV‐2 [5] = conditions: cited from earlier work
COVID‐19 = conditions: cited from earlier work
[6] = Cytotoxicity in Calu-3 cells without virus (XTT); conditions: human, CC50, Calu‐3 cells, no virus, three days
Experimental: as §1

Calu‐3 cells = experiment: Cytotoxicity in Calu-3 cells without virus (XTT); conditions: Calu‐3 cells, no virus, three days
Experimental: as §1

[7] = 50 min, read-out: residual activity (RA) of the SARS‐CoV‐2 RdRp complex
[8] = read-out: residual activity (RA) of SARS‐CoV‐2 RdRp

CC(C)OC(=O)c1cc(NC(=O)Nc2cccc([N+](=O)[O-])c2)cc(C(=O)OC(C)C)c1 [Compound 1]
remaining activity at 10 µM [1, 7]: 57% | solubility in water [2]: poorly soluble in water | CC50 at 3 days (in vitro): 23 µM | EC50 (SARS‐CoV‐2 [3]): > 23 µM

O=C(Nc1cccc(C(F)(F)F)c1)Nc1nc2cc(Cl)c(Cl)cc2[nH]1 [Compound 59, 1‐(5,6‐Dichloro‐1H‐Benzo[d]imidazol‐2‐yl)‐3‐(3‐(Trifluoromethyl)phenyl)urea]
remaining activity at 10 µM [1, 7]: 50% | solubility kinetic [4]: 2.53 ± 0.03 µM (≈ 0.985 µg/mL) | CC50 at 3 days (in vitro): 23 µM | EC50 (SARS‐CoV‐2 [3]): ~10 µM

O=C(Nc1cc(Cl)cc(Cl)c1)Nc1nc2ccc(C(F)(F)F)cc2[nH]1 [Compound 60, 1‐(3,5‐Dichlorophenyl)‐3‐(6‐(Trifluoromethyl)‐1H‐Benzo[d]imidazol‐2‐yl)urea]
remaining activity at 10 µM [1, 7]: 28% | solubility kinetic [4]: < 2.1 µM | CC50 at 3 days (in vitro): 0.65 µM | EC50 (SARS‐CoV‐2 [3]): > 0.65 µM

O=C(Nc1cc(C(F)(F)F)cc(C(F)(F)F)c1)Nc1ccc(Br)cc1-c1nnn[nH]1 [Endovion, endovion, reference compound]
remaining activity at 10 µM [1, 7]: 40% | solubility in water [2]: poorly soluble in water | activity in cell assays against the virus (SARS‐CoV‐2 [5]): active | CC50 at 3 days (in vitro): > 64 µM | EC50 (SARS‐CoV‐2 [3]): > 64 µM

CC(C)C(=O)OC[C@H]1O[C@@H](n2ccc(NO)nc2=O)[C@H](O)[C@@H]1O [Molnupiravir, molnupiravir]
post‐hospitalization mortality rate (COVID‐19; 30‐day‐long study, patients with moderate COVID‐19, placebo 9.7 %): 6.8%

CCC(CC)COC(=O)[C@H](C)N[P@](=O)(OC[C@H]1O[C@@](C#N)(c2ccc3c(N)ncnn23)[C@H](O)[C@@H]1O)Oc1ccccc1 [Remdesivir, remdesivir, reference compound]
remaining activity at 10 µM [1, 8]: 62% | remaining activity at 50 µM [1, 8]: 40% | remaining activity at 100 µM [1, 8]: 25% | mortality among hospitalized adults (COVID‐19; Adaptive COVID Treatment Trial (ACTT), placebo 15.2 %): 11.4% | improvement compared with placebo (COVID‐19; Hubei (China) study): no statistically significant improvement | CC50 at 3 days [6]: > 3.2 µM | CC50 (Calu‐3 cells): > 5 µM | EC50 (SARS‐CoV‐2 [3]): 0.11 µM

NC(=O)c1nc(F)c[nH]c1=O [favipiravir]
clinical recovery rate (COVID‐19; open‐label randomized trial in China, COVID‐19 patients): did not significantly improve

Reference: PMC11617668, “Developing Allosteric Inhibitors of SARS‐CoV‐2 RNA‐Dependent RNA Polymerase” (Chemmedchem, 2024)
